Measurements: patent US8318769B2, “Substituted sulfonamide compounds” (Gruenethal GmbH, priority 2008, dated 2012)

Columns and labels:
[1] = biological target: T1, bradykinin 1 receptor (B1R) of the rat (Rattus norvegicus, UniProt P97583); test: FLIPR Ca2+ assay, B1R antagonism, rat; format: cell-based; conditions: CHO K1 cells with rat B1R gene (rB1R cells), Des-Arg9-bradykinin at EC80, % inhibition compared with the maximum achievable inhibition; for inhibition at 10 µM: CHO-K1, 10 μM test substance, read-out: B1R antagonism, rat [10 μM] % inhibition; for B1R antagonism, rat [10 μM] % inhibition: 10 μM test substance
T1 construct: expressed in transfected cells
T1 sequence (P97583 1-337): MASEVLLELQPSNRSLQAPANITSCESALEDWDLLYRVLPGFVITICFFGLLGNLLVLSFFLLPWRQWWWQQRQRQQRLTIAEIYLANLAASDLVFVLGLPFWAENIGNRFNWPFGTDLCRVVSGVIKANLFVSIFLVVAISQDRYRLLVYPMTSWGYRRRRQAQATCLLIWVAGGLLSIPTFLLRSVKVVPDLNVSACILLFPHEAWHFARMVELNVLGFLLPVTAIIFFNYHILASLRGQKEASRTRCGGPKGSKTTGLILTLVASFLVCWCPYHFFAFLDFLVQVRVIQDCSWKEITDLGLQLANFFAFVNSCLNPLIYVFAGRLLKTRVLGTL
Method in brief: (§1)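 Antagonism is given as % of maximum achievable suppression of agonist-evoked Ca2+ influx, measured by Fluo-4 peak fluorescence in FLIPR. Stable hB1R or rB1R CHO K1 lines received 10 μM compound for 10-20 min before EC80 Lys-Des-Arg9-bradykinin (human) or Des-Arg9-bradykinin (rat).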

[2] = biological target: T2, human bradykinin 1 receptor (B1R) (Homo sapiens, UniProt P46663); test: FLIPR Ca2+ assay, B1R antagonism, human; format: cell-based; conditions: 10 μM test substance, CHO K1 cells with human B1R gene (hB1R cells), Lys-Des-Arg9-bradykinin at EC80, % inhibition compared with the maximum achievable inhibition; for inhibition at 10 µM: read-out: B1R antagonism, human [10 μM] % inhibition
T2 construct: expressed in transfected cells
T2 sequence (P46663 1-353): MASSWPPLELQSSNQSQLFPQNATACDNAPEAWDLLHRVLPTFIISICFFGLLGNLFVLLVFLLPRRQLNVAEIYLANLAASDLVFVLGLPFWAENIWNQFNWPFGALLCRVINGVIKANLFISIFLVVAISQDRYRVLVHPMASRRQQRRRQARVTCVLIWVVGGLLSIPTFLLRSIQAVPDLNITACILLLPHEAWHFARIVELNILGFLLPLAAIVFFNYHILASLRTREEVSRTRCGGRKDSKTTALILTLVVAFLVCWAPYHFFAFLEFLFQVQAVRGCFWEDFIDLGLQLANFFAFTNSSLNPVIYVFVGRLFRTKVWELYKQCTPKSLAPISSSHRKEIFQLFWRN
Method in brief: as §1

In the case of CN1CCN(CCOC2(c3cccnc3)CCN(C(=O)CC3CCCCN3S(=O)(=O)c3cccc(C(F)(F)F)c3)CC2)CC1 (centres unmarked) [Example 30, 1-(4-(2-(4-methylpiperazin-1-yl)ethoxy)-4-(pyridin-3-yl)piperidin-1-yl)-2-(1-(3-(trifluoromethyl)phenylsulfonyl)piperidin-2-yl)ethanone], the inhibition at 10 µM [1] is reported as 18% and the inhibition at 10 µM [2] is reported as 31%.

COc1cc(C)c(S(=O)(=O)N2c3ccccc3CC[C@H]2COCC(=O)N2CCC(OCCN3CCCC3)(c3cccnc3)CC2)c(C)c1 [Example 1, (S)-2-((1-(4-methoxy-2,6-dimethylphenylsulfonyl)-1,2,3,4-tetrahydroquinolin-2-yl)methoxy)-1-(4-(pyridin-3-yl)-4-(2-(pyrrolidin-1-yl)ethoxy)piperidin-1-yl)ethanone] showed an inhibition at 10 µM [1] of 100% and an inhibition at 10 µM [2] of 99%.

O=C(CC(NS(=O)(=O)c1ccc2ccccc2c1)c1ccccc1)N1CCC(OCCN2CCCC2)(c2cccnc2)CC1 (centres unmarked) [Example 26, N-(3-oxo-1-phenyl-3-(4-(pyridin-3-yl)-4-(2-(pyrrolidin-1-yl)ethoxy)piperidin-1-yl)propyl)naphthalene-2-sulfonamide] showed an inhibition at 10 µM [1] of 91% and an inhibition at 10 µM [2] of 87%.

Work on COc1cc(C)c(S(=O)(=O)N(CCOCC(=O)N2CCC(OCCN3CCCC3)(c3cccc(F)c3)CC2)c2ccccc2)c(C)c1 [Example 99, N-[2-[2-[4-(3-fluorophenyl)-4-(2-pyrrolidin-1-yl-ethoxy)-piperidin-1-yl]-2-oxo-ethoxy]-ethyl]-4-methoxy-2,6-dimethyl-N-phenyl-benzenesulfonic acid amide] yielded an inhibition at 10 µM [1] of 97% and an inhibition at 10 µM [2] of 99%.

Compound O=C(CC(NS(=O)(=O)c1ccc2ccccc2c1)c1ccccc1)N1CCC(OCCCN2CCCCC2)(c2cccnc2)CC1 (centres unmarked) [Example 27, N-(3-oxo-1-phenyl-3-(4-(3-(piperidin-1-yl)propoxy)-4-(pyridin-3-yl)piperidin-1-yl)propyl)naphthalene-2-sulfonamide] has an inhibition at 10 µM [1] of 101% and an inhibition at 10 µM [2] of 83%.

COc1cc(C)c(S(=O)(=O)N2CCCCC2COCC(=O)N2CCC(OCCCN3CCN(C)CC3)(c3cccnc3)CC2)c(C)c1 (centres unmarked) [Example 33, 2-((1-(4-methoxy-2,6-dimethylphenylsulfonyl)piperidin-2-yl)methoxy)-1-(4-(3-(4-methylpiperazin-1-yl)propoxy)-4-(pyridin-3-yl)piperidin-1-yl)ethanone] gave an inhibition at 10 µM [1] of 103% and an inhibition at 10 µM [2] of 98%.

With O=C(COCC1CCc2ccccc2N1S(=O)(=O)c1ccc(Cl)c(Cl)c1)N1CCC(OCCCN2CCCC2)(c2cccnc2)CC1 (centres unmarked) [Example 45, 2-((1-(3,4-dichlorophenylsulfonyl)-1,2,3,4-tetrahydroquinolin-2-yl)methoxy)-1-(4-(pyridin-3-yl)-4-(3-(pyrrolidin-1-yl)propoxy)piperidin-1-yl)ethanone] the inhibition at 10 µM [1] was 103% and the inhibition at 10 µM [2] was 76%.

For CN1CCN(CCOC2(c3cccnc3)CCN(C(=O)CC(NS(=O)(=O)c3ccc4ccccc4c3)c3ccccc3)CC2)CC1 (centres unmarked) [Example 32, N-(3-(4-(2-(4-methylpiperazin-1-yl)ethoxy)-4-(pyridin-3-yl)piperidin-1-yl)-3-oxo-1-phenylpropyl)naphthalene-2-sulfonamide], the inhibition at 10 µM [1] was 98% and the inhibition at 10 µM [2] was 63%.

Compound COc1cc(C)c(S(=O)(=O)N2CCCC[C@H]2COCC(=O)N2CCC(OCCN3CCCC3)(c3cccc(Cl)c3)CC2)c(C)c1 [Example 56, 1-[4-(3-chlorophenyl)-4-(2-pyrrolidin-1-yl-ethoxy)-piperidin-1-yl]-2-[[(2S)-1-[(4-methoxy-2,6-dimethyl-phenyl)sulfonyl]-piperidin-2-yl]-methoxy]-ethanone] has an inhibition at 10 µM [1] of 100% and an inhibition at 10 µM [2] of 99%.

For COc1cc(C)c(S(=O)(=O)N2CCCC[C@H]2COCC(=O)N2CCCC(OCCN3CCCC3)(c3cccnc3)CC2)c(C)c1 (stereo partly drawn) [Example 55, 2-[[(2S)-1-[(4-methoxy-2,6-dimethyl-phenyl)sulfonyl]-piperidin-2-yl]-methoxy]-1-[4-pyridin-3-yl-4-(2-pyrrolidin-1-yl-ethoxy)-azepan-1-yl]-ethanone], the inhibition at 10 µM [1] was 103% and the inhibition at 10 µM [2] was 100%.

With COc1cc(C)c(S(=O)(=O)N(CCOCC(=O)N2CCC(OCCN3CCCC3)(c3cccnc3)CC2)c2ccccc2)c(C)c1 [Example 98, 4-methoxy-2,6-dimethyl-N-[2-[2-oxo-2-[4-pyridin-3-yl-4-(2-pyrrolidin-1-yl-ethoxy)-piperidin-1-yl]-ethoxy]-ethyl]-N-phenyl-benzenesulfonic acid amide] the inhibition at 10 µM [1] was 103% and the inhibition at 10 µM [2] was 100%.

In the case of COc1cc(C)c(S(=O)(=O)N2CCCCC2COCC(=O)N2CCC(OCCCN3CCCCC3)(c3cccnc3)CC2)c(C)c1 (centres unmarked) [Example 17, 2-((1-(4-methoxy-2,6-dimethylphenylsulfonyl)piperidin-2-yl)methoxy)-1-(4-(3-(piperidin-1-yl)propoxy)-4-(pyridin-3-yl)piperidin-1-yl)ethanone], the inhibition at 10 µM [1] is reported as 102% and the inhibition at 10 µM [2] is reported as 102%.

COc1cc(C)c(S(=O)(=O)N2CCCCC2CCCC(=O)N2CCC(OCCN3CCCC3)(c3cccnc3)CC2)c(C)c1 (centres unmarked) [Example 87, 4-[1-[(4-methoxy-2,6-dimethyl-phenyl)sulfonyl]-piperidin-2-yl]-1-[4-pyridin-3-yl-4-(2-pyrrolidin-1-yl-ethoxy)-piperidin-1-yl]-butan-1-one] gave an inhibition at 10 µM [1] of 102% and an inhibition at 10 µM [2] of 100%.

Compound O=C(CCCC1CCCCN1S(=O)(=O)c1ccccc1C(F)(F)F)N1CCC(OCCN2CCCC2)(c2cccnc2)CC1 (centres unmarked) [Example 8, 1-(4-(pyridin-3-yl)-4-(2-(pyrrolidin-1-yl)ethoxy)piperidin-1-yl)-4-(1-(2-(trifluoromethyl)phenylsulfonyl)piperidin-2-yl)butan-1-one] has an inhibition at 10 µM [1] of 60% and an inhibition at 10 µM [2] of 70%.

In the case of O=C(COCC1CCCCN1S(=O)(=O)c1ccccc1C(F)(F)F)N1CCC(OCCN2CCCC2)(c2cccnc2)CC1 (centres unmarked) [Example 117, 1-[4-pyridin-3-yl-4-(2-pyrrolidin-1-yl-ethoxy)-piperidin-1-yl]-2-[[1-[[2-(trifluoromethyl)-phenyl]sulfonyl]-piperidin-2-yl]-methoxy]-ethanone], the “B1R antagonism, rat [10 μM] % inhibition” value [1] is reported as 103% and the “B1R antagonism, human [10 μM] % inhibition” value [2] is reported as 100%.

Compound Cc1cccc(Cl)c1S(=O)(=O)N(CCOCC(=O)N1CCC(OCCN2CCCC2)(c2cccc(F)c2)CC1)C1CC1 [Example 62, 2-chloro-N-cyclopropyl-N-[2-[2-[4-(3-fluorophenyl)-4-(2-pyrrolidin-1-yl-ethoxy)-piperidin-1-yl]-2-oxo-ethoxy]-ethyl]-6-methyl-benzenesulfonic acid amide] has an inhibition at 10 µM [1] of 102% and an inhibition at 10 µM [2] of 100%.

Compound CN1CCN(CCCOC2(c3cccnc3)CCN(C(=O)COCC3CCc4ccccc4N3S(=O)(=O)c3ccc(Cl)c(Cl)c3)CC2)CC1 (centres unmarked) [Example 37, 2-((1-(3,4-dichlorophenylsulfonyl)-1,2,3,4-tetrahydroquinolin-2-yl)methoxy)-1-(4-(3-(4-methylpiperazin-1-yl)propoxy)-4-(pyridin-3-yl)piperidin-1-yl)ethanone] has an inhibition at 10 µM [1] of 99% and an inhibition at 10 µM [2] of 77%.

Compound Cc1cc(S(=O)(=O)N2CCCCC2CCC(=O)N2CCC(OCCCN3CCCC3)(c3cccnc3)CC2)c(C)cc1Cl (centres unmarked) [Example 43, 3-(1-(4-chloro-2,5-dimethylphenylsulfonyl)piperidin-2-yl)-1-(4-(pyridin-3-yl)-4-(3-(pyrrolidin-1-yl)propoxy)piperidin-1-yl)propan-1-one] has an inhibition at 10 µM [1] of 67% and an inhibition at 10 µM [2] of 86%.

COc1cc(C)c(S(=O)(=O)N(C)CCOCC(=O)N2CCC(OCCN3CCCC3)(c3cccnc3)CC2)c(C)c1 [Example 80, 4-methoxy-N,2,6-trimethyl-N-[2-[2-oxo-2-[4-pyridin-3-yl-4-(2-pyrrolidin-1-yl-ethoxy)-piperidin-1-yl]-ethoxy]-ethyl]-benzenesulfonic acid amide] was tested, and the “B1R antagonism, rat [10 μM] % inhibition” value [1] was 102% and the “B1R antagonism, human [10 μM] % inhibition” value ([2]; 10 µM) was 100%.
